US20180044343A1, “BICYCLIC IMIDAZOLO DERIVATIVE” (Sumitomo Dainippon Pharma Co., Ltd., priority 2015, published 2018)

Biological target: PDE1B (Homo sapiens, UniProt Q01064)
Assay: In vitro HTRF PDE1 inhibition assay (PDE1B)
Type: biochemical
Conditions: in vitro PDE1B HTRF Assay; read-out: IC50

Chain of PDE1B (Q01064 whole entry): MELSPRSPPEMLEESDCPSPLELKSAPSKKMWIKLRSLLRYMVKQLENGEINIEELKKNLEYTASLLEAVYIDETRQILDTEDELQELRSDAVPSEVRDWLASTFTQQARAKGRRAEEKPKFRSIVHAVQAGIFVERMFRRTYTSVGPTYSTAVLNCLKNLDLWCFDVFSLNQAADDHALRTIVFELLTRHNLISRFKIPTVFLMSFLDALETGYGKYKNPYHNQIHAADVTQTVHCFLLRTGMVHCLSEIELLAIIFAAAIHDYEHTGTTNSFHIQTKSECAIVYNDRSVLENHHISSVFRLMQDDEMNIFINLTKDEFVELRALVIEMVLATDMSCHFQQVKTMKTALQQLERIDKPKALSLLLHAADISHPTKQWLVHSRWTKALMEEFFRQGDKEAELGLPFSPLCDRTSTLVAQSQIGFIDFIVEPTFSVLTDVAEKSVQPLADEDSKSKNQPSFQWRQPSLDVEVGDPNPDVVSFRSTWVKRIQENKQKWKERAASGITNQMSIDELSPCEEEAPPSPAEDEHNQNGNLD

| Compound | IC50 [nM] |
| --- | --- |
| COc1nn2c(C3CCOCC3)nc(C)c2c(=O)n1CC1CCC(F)(F)CC1 [Example 122] | < 1000 |
| CCn1c(OCC2CCC(F)(F)CC2)nn2c(C3CCOCC3)ncc2c1=S [Example 123, 2-[(4,4-Difluorocyclohexyl)methoxy]-3-ethyl-7-(tetrahydro-2H-pyran-4-yl)imidazo[5,1-f][1,2,4]triazin-4(3H)-thione] | < 1000 |
| O=c1[nH]c(N2CCC[C@@H]2c2ccccc2)nn2c(C3CCOCC3)ncc12 [Example 124, 2-[(2R)-2-phenylpyrrolidin-1-yl]-7-(tetrahydro-2H-pyran-4-yl)imidazo[5,1-f][1,2,4]triazin-4(3H)-one] | < 1000 |
| CC(C)c1ncc2c(=O)[nH]c(N3CCC[C@@H]3c3ccc(Cl)cc3)nn12 [Example 125, 2-[(2R)-2-(4-chlorophenyl)pyrrolidin-1-yl]-7-(propan-2-yl)imidazo[5,1-f][1,2,4]triazin-4(3H)-one] | < 1000 |
| O=c1[nH]c(N2CCC[C@H]2c2ccccc2)nn2c(C3CCOCC3)ncc12 [Example 126] | < 1000 |
| O=c1[nH]c(N2CCCC2c2ccccc2Cl)nn2c(C3CCOCC3)ncc12 (stereo not drawn) [Example 127] | < 1000 |
| O=c1[nH]c(N2CCCC2c2cccc(Cl)c2)nn2c(C3CCOCC3)ncc12 (stereo not drawn) [Example 128] | < 1000 |
| O=c1[nH]c(N2CCCC2c2ccc(Cl)cc2)nn2c(C3CCOCC3)ncc12 (stereo not drawn) [Example 129] | < 1000 |
| CC(C)c1ncc2c(=O)[nH]c(N3CCC[C@@H]3c3ccccc3)nn12 [Example 130] | < 1000 |
| CC(C)c1ncc2c(=O)[nH]c(N3CCC[C@H]3c3ccccc3)nn12 [Example 131] | 1000 to 10000 |
| CC(C)c1ncc2c(=O)[nH]c(N3CCCC3c3ccccc3Cl)nn12 (stereo not drawn) [Example 132] | < 1000 |
| CC(C)c1ncc2c(=O)[nH]c(N3CCCC3c3cccc(Cl)c3)nn12 (stereo not drawn) [Example 133] | < 1000 |
| Cc1ccc(CNc2nn3c(C(C)C)ncc3c(=O)n2C)cn1 [Example 155] | < 1000 |
| Cc1ccc([C@H]2CCCN2c2nn3c(C(C)C)ncc3c(=O)n2C)cc1 [Example 165] | < 1000 |
| CC(C)c1ccc([C@H]2CCCN2c2nn3c(C(C)C)ncc3c(=O)n2C)cc1 [Example 166] | < 1000 |
| CC(C)c1ncc2c(=O)n(C)c(N3CCC[C@@H]3c3ccc(C#N)cc3)nn12 [Example 167] | 1000 to 10000 |
| CCn1c(NCc2ccc(C)nc2)nn2c(C(C)C)ncc2c1=O [Example 176] | < 1000 |
| CCn1c(NCCc2ccccn2)nn2c(C(C)C)ncc2c1=O [Example 177] | < 1000 |
| Cn1c(NCc2ccccn2)nn2c(C3CCOCC3)ncc2c1=O [Example 181] | < 1000 |
| Cn1c(NCCc2ccccn2)nn2c(C3CCOCC3)ncc2c1=O [Example 182] | < 1000 |

| Compound | IC50 [nM] |
| --- | --- |
| Cn1c(N2CCCC2)nn2c(C3CCOCC3)ncc2c1=O [Example 183] | < 1000 |
| Cn1c(N2CCCCC2)nn2c(C3CCOCC3)ncc2c1=O [Example 184] | < 1000 |
| Cn1c(N2CCOCC2)nn2c(C3CCOCC3)ncc2c1=O [Example 185] | < 1000 |
| COCCN1CCN(c2nn3c(C4CCOCC4)ncc3c(=O)n2C)CC1 [Example 186] | < 1000 |
| CO[C@H]1CCN(c2nn3c(C4CCOCC4)ncc3c(=O)n2C)C1 [Example 187] | < 1000 |
| CO[C@@H]1CCN(c2nn3c(C4CCOCC4)ncc3c(=O)n2C)C1 [Example 188] | < 1000 |
| Cn1c(N2CC[C@@H](Oc3ccc(F)cn3)C2)nn2c(C3CCOCC3)ncc2c1=O [Example 189] | < 1000 |
| Cn1c(N2CC[C@H](Oc3ccc(F)cn3)C2)nn2c(C3CCOCC3)ncc2c1=O [Example 190] | < 1000 |
| COC1CCN(c2nn3c(C4CCOCC4)ncc3c(=O)n2C)CC1 [Example 191] | < 1000 |
| COCC1CCN(c2nn3c(C4CCOCC4)ncc3c(=O)n2C)CC1 [Example 192] | < 1000 |
| COCCC1CCN(c2nn3c(C4CCOCC4)ncc3c(=O)n2C)CC1 [Example 193] | < 1000 |
| CN(C)C(=O)C1CCN(c2nn3c(C4CCOCC4)ncc3c(=O)n2C)CC1 [Example 194] | 1000 to 10000 |
| CC(=O)N1CCN(c2nn3c(C4CCOCC4)ncc3c(=O)n2C)CC1 [Example 195] | < 1000 |
| COCCCN1CCN(c2nn3c(C4CCOCC4)ncc3c(=O)n2C)CC1 [Example 196] | < 1000 |
| CN(C)C(=O)CN1CCCN(c2nn3c(C4CCOCC4)ncc3c(=O)n2C)CC1 [Example 197] | < 1000 |
| CCn1c(N2CCCC2)nn2c(C3CCOCC3)ncc2c1=O [Example 198] | < 1000 |
| CCCn1c(N2CCCC2)nn2c(C3CCOCC3)ncc2c1=O [Example 199] | < 1000 |
| O=c1c2cnc(C3CCOCC3)n2nc(N2CCCC2)n1Cc1ccccc1 [Example 202] | < 1000 |
| O=c1c2cnc(C3CCOCC3)n2nc(N2CCCC2)n1Cc1ccc(Cl)cc1 [Example 203] | < 1000 |
| Cc1ccc(CNc2nn3c(C4CCC4)ncc3c(=O)n2C)nc1 [Example 204] | < 1000 |

More lines, now with the values ahead:

| IC50 [nM] | Compound |
| --- | --- |
| < 1000 | CC(C)c1ncc2c(=O)[nH]c(N3CCCC3c3ccc(Cl)cc3)nn12 (stereo not drawn) [Example 134] |
| < 1000 | COc1ccc(CNc2nn3c(C(C)C)ncc3c(=O)n2C)nc1 [Example 135, 2-{[(5-Methoxypyridin-2-yl)methyl]amino}-3-methyl-7-(propan-2-yl)imidazo[5,1-f][1,2,4]triazin-4(3H)-one] |
| < 1000 | Cc1ccc(CNc2nn3c(C4CCOCC4)ncc3c(=O)n2C)c(F)c1 [Example 136, 2-[(2-Fluoro-4-methylbenzyl)amino]-3-methyl-7-(tetrahydro-2H-pyran-4-yl)imidazo[5,1-f][1,2,4]triazin-4(3H)-one] |
| < 1000 | Cc1cccc(CNc2nn3c(C(C)C)ncc3c(=O)n2C)n1 [Example 137, 3-Methyl-2-{[(6-methylpyridin-2-yl)methyl]amino}-7-(propan-2-yl)imidazo[5,1-f][1,2,4]triazin-4(3H)-one] |
| < 1000 | CC(C)c1ncc2c(=O)n(C)c(NC3CCCc4ccccc43)nn12 (stereo not drawn) [Example 138, 3-Methyl-7-(propan-2-yl)-2-(1,2,3,4-tetrahydronaphthalen-1-ylamino)imidazo[5,1-f][1,2,4]triazin-4(3H)-one] |
| < 1000 | CC(C)c1ncc2c(=O)n(C)c(NCc3ccccc3)nn12 [Example 139] |
| < 1000 | COc1ccc(CNc2nn3c(C(C)C)ncc3c(=O)n2C)cc1 [Example 140] |
| < 1000 | CC(C)c1ncc2c(=O)n(C)c(NCc3ccc(Cl)cc3)nn12 [Example 141] |
| < 1000 | CC(C)c1ncc2c(=O)n(C)c(NCc3ccc(C#N)cc3)nn12 [Example 142] |
| < 1000 | CC(C)c1ncc2c(=O)n(C)c(NC3CCc4ccccc43)nn12 (stereo not drawn) [Example 143] |
| < 1000 | CC(C)c1ncc2c(=O)n(C)c(N[C@@H]3CCCc4ccccc43)nn12 [Example 144] |
| < 1000 | CC(C)c1ncc2c(=O)n(C)c(N[C@H]3CCCc4ccccc43)nn12 [Example 145] |
| < 1000 | CC(C)c1ncc2c(=O)n(C)c(NCc3ccc(Cl)cc3F)nn12 [Example 146] |
| < 1000 | CC(C)c1ncc2c(=O)n(C)c(NC3CCCc4cc(Cl)ccc43)nn12 (stereo not drawn) [Example 147] |
| < 1000 | CC(C)c1ncc2c(=O)n(C)c(NC3CCCc4cc(C#N)ccc43)nn12 (stereo not drawn) [Example 148] |
| < 1000 | CC(C)c1ncc2c(=O)n(C)c(NCc3ccccn3)nn12 [Example 150] |
| < 1000 | CC(C)c1ncc2c(=O)n(C)c(NCCc3ccccn3)nn12 [Example 151] |
| < 1000 | CC(C)c1ncc2c(=O)n(C)c(NCc3cccnc3)nn12 [Example 152] |
| < 1000 | Cc1ccc(CNc2nn3c(C(C)C)ncc3c(=O)n2C)nc1 [Example 153] |
| 1000 to 10000 | CC(C)c1ncc2c(=O)n(C)c(NCc3ccc(F)cn3)nn12 [Example 154] |
| < 1000 | Cc1ccnc(CNc2nn3c(C(C)C)ncc3c(=O)n2C)c1 [Example 156] |

| IC50 [nM] | Compound |
| --- | --- |
| < 1000 | Cc1cccnc1CNc1nn2c(C(C)C)ncc2c(=O)n1C [Example 157] |
| < 1000 | CC(C)c1ncc2c(=O)n(C)c(NCc3ccc(C#N)cn3)nn12 [Example 158] |
| < 1000 | CCc1ccc(CNc2nn3c(C(C)C)ncc3c(=O)n2C)nc1 [Example 159] |
| < 1000 | CC(C)c1ncc2c(=O)n(C)c(NCc3ncccc3F)nn12 [Example 160] |
| < 1000 | CC(C)c1ncc2c(=O)n(C)c(NC3(c4ccccn4)CC3)nn12 [Example 161] |
| 1000 to 10000 | CC(C)c1ncc2c(=O)n(C)c(NC(C)(C)c3ccccn3)nn12 [Example 162] |
| 1000 to 10000 | CC(C)c1ncc2c(=O)n(C)c(N(C)Cc3ccccn3)nn12 [Example 163] |
| < 1000 | CC(C)c1ncc2c(=O)n(C)c(N3CCC[C@@H]3c3ccc(Cl)cc3)nn12 [Example 164] |
| < 1000 | CCc1ccc([C@H]2CCCN2c2nn3c(C(C)C)ncc3c(=O)n2C)cc1 [Example 168] |
| < 1000 | CCn1c(NCc2ccccn2)nn2c(C(C)C)ncc2c1=O [Example 169] |
| < 1000 | CCn1c(NCc2ccc(C)cn2)nn2c(C(C)C)ncc2c1=O [Example 170] |
| < 1000 | CCn1c(NCc2ccc(F)cn2)nn2c(C(C)C)ncc2c1=O [Example 171] |
| < 1000 | CCn1c(NCc2ccc(OC)cn2)nn2c(C(C)C)ncc2c1=O [Example 172] |
| 1000 to 10000 | CCn1c(NCc2ncccc2C)nn2c(C(C)C)ncc2c1=O [Example 173] |
| < 1000 | CCn1c(NCc2ncccc2F)nn2c(C(C)C)ncc2c1=O [Example 174] |
| < 1000 | CCn1c(NCc2ccc(C#N)cn2)nn2c(C(C)C)ncc2c1=O [Example 175] |
| < 1000 | CCn1c(N2CCC[C@@H]2c2ccc(Cl)cc2)nn2c(C(C)C)ncc2c1=O [Example 178] |
| < 1000 | CCCn1c(N2CCC[C@@H]2c2ccc(Cl)cc2)nn2c(C(C)C)ncc2c1=O [Example 179] |
| < 1000 | Cn1c(NCc2ccc(Cl)cc2)nn2c(C3CCOCC3)ncc2c1=O [Example 180] |
| < 1000 | Cn1c(NCc2ccc(Cl)cn2)nn2c(C3CCC3)ncc2c1=O [Example 205] |
